From patent US10648979B2, “Molecular probes for detecting gram-negative bacteria in vitro and in vivo” (priority 2014, dated 2020)
Entries after “also recorded” stand apart in the source; their conditions may differ. Bridge positions count the residues as written; N and C are the ends. Square brackets hold non-standard residues; d marks the D form. Peptide text beside a SMILES is read from it. * marks the point of attachment. ξ: configuration not given here. NBD = O=[N+]([O-])c1ccc(*)c2nonc12; dDab = NCC[C@@H](N)C(=O)O; Dab = NCC[C@H](N)C(=O)O; AEEA = NCCOCCOCC(=O)O; ξDab = NCCC(N)C(=O)O

Legend:
[1] = test system: bacteria instilled into ovine lung segments; assay: Ex vivo ovine lung model of bacterial infection, in situ labelling imaged by FCFM
Experimental: FIG. 9: Ex vivo model of bacterial infection. A) Ovine lungs were harvested, ventilated and placed in a neonatal incubator with ambient temperature of 37° C. Pulmonary segments were instilled with PBS (control) or bacteria via bronchoscopy. Probes were then instilled and segments imaged with fibered confocal fluorescence microscopy (FCFM) using 488 nm Laser Scanning Unit (LSU). […] Bacteria (MSSA) instilled into segments of ovine lung and lavaged at 1, 3 and 5 hours (n=3), plated for CFU/ml and counted following 16 hour incubation.
NBD-UBIdend and NBD-PMX were assessed for in situ specificity and sensitivity in an ex vivo ovine model of bacterial infection (FIG. 9). […] We observed identical patterns with Calcein-labelled bacteria and Green Fluorescent Protein-expressing S. aureus which were instilled into the lung and imaged with FCFM (FIG. 10A). This pattern is reproduced identically by instilling bacteria “pre-labelled” with NBD-UBIdend and NBD-PMX into lung segments.
Following this thorough characterisation of the model and positive controls, we instilled PBS or VAP-relevant bacteria into distinct segments within the ex vivo lung model, followed by the microdosed delivery of the probes.
(§1) All compounds have undergone biological assessment.
Bacteria were grown to midlog phase in 400 ml TSB, pelleted by centrifugation and resuspended in 2 ml PBS. This was mixed with 18 ml molten tryptic-soy agar (50° C.) and injected rapidly into vortexing mineral oil +0.01% Span 80, pre-warmed to 50° C. This was then rapidly cooled to 4° C. whilst continuing to vortex to allow the beads to set. Bacterial agar beads were pelleted by centrifugation (20 minutes, 3000 g) and washed in 0.5% sodium deoxycholate (SDC) in PBS (20 minutes, 3000 g), followed by 0.25% SDC (20 minutes, 3000 g) in PBS, washed in PBS (10 minutes, 3000 g) and 3×PBS (5 minutes, 200 g). Beads were resuspended at 50% v/v in PBS for instillation.
From a cohort of surplus stock ewes which were destined for cull, one ewe was identified and terminally euthanized with an overdose of anaesthetic. Death was confirmed and the trachea was identified and clamped in situ. The thoracic cavity was then accessed and the lungs were freed from surrounding tissues and organs and the heart/lung was removed en block. The right pulmonary artery was identified, cannulated and perfused with 1000 ml 0.9% NaCl. Once filling of the left ventricle was confirmed an incision was made to allow free drainage and perfusion continued until the drainage from the left atrium was clear. The lungs were then transferred to the Queen's Medical Research Institute and the trachea was intubated with an 8.0 endotracheal tube immediately following clamp release. […]

[2] = test system: human erythrocytes; assay: Haemolysis assay; settings: up to 100 μM; 0.2% Triton-X = 100%
Experimental: Positive control was 0.2% Triton-X and values corrected to represent 100% haemolysis for Triton-X.
Erythrocytes were isolated from freshly drawn, anticoagulated human blood and resuspended to 20 vol % in PBS (pH 7.4). In a 96-well microtiter plate, 100 μl of erythrocyte suspension was added to 100 μl of NLLP solution in PBS (prepared by 1:2 serial dilutions) or 100 μl of PBS in the case of negative controls. One-hundred percent haemolysis wells contained 100 μl of red cell suspension with 100 μl of 0.2 vol % Triton X-100. The plate was incubated for 1 h at 37° C., and then each well was diluted with 150 μl of PBS. The plate was then centrifuged at 1,200 g for 15 min, 100 μl of the supernatant from each well was transferred to a fresh microtiter plate, and A350 was measured. Percentage of haemolysis was determined as (A−A0)/(Atotal−A0)×100, where A is the absorbance of the test well, A0 the absorbance of the negative controls, and Atotal the absorbance of 100% haemolysis wells, all at 350 nm on a Biotek plate reader.

[3] = test system: pre-labelled bacteria in ovine lung; assay: Pre-labelled bacteria instilled into the ovine lung and imaged by FCFM
Excerpt: FIG. 14: NBD-UBIdend and NBD-PMX are resistant to ‘wash off’ allowing detection of bacteria in the ovine lung. […] However, when bacteria pre-labelled with linear NBD-UBINle are instilled, no punctate signal is seen. Labelling was confirmed by imaging bacterial suspensions (left hand panels) before instillation into the lung and imaging by FCFM (right hand panels). Note the lower SNR for NBD-UBINle labelled bacteria in suspension. Representative images shown, n=3 for each experiment.
In the distal lung, there is likely to be significant and rapid dissipation of the probes immediately after delivery. Therefore, it is imperative that probe-bacterial labelling remains persistent under these conditions. […] As such, this resistance to ‘wash-off’ represents a surrogate indicator of probe-bacterial affinity which appears to be an absolute requirement for distal lung in situ labelling.
We have obtained evidence that the wash-off properties of the probes, most likely related to affinity and/or the nature of subsequent insertion into the bacterial membrane, impact on whether or not they can be used to successfully image in the lung. The retention of labelling upon removal of probe solution was investigated in vitro by confocal. With all of the linear UBI variants labelling was lost completely upon wash-off. […]

[4] = test system: PA3284; assay: Bacterial labelling in the presence or absence of ovine lavage (confocal); format: cell-based, Pseudomonas aeruginosa; settings: 1 μM
[5] = test system: bacteria over lung surfactant constituents; assay: Bacterial labelling in the presence of lung surfactant constituents (confocal); format: cell-based
Experimental: Ratio of bacterial fluorescence intensity:surfactant fluorescent intensity quantified from confocal microscopy images.
In vitro experiments were conducted using lung surfactant constituents to investigate the ability of probes to preferentially detect bacteria in the presence of large amounts of surfactant. […] A suspension of surfactant constituents in buffered saline was prepared (20 mg/ml, 65% dipalmitoylphosphatidylcholine, 30% phosphatidylglycerol, 5% palmitic acid with 1 mg/ml tyloxapol as a spreading agent) and incubated with and without A549 epithelial cell monolayer.
Surfactant 5 μg 1,2-Dipalmitoyl-sn-glycero-3-phosphocholine (DPPC) and 2.5 μg L-α-Phosphatidyl-DL-glycerol sodium salt (from egg yolk lecithin; PG) were dissolved in 500 μl chloroform and evaporated under nitrogen to a thin lipid film in a round bottom flask. The lipid film was rehydrated with PBS at 48° C. for 1 hour with agitation (750 rpm) to generate multilammelar vesicles (MLV). These were diluted 1:4 for use in confocal experiments.

[6] = water
[7] = test system: A549 cells; assay: Labelling of A549 cells (confocal); format: cell-based, human
Experimental: as §1
A549 cells were grown in Dulbecco's modified Eagle's medium (DMEM) supplemented with 10% fetal bovine serum (FBS), 2 mM L-glutamine, 100 units/mL penicillin G and 100 μg/mL streptomycin to 80% confluence. Cells were dispersed with Trypsin-EDTA and seeded onto glass coverslips or 8 well confocal imaging chambers and grown to confluence in the presence of DMEM.
Bacteria were prepared and counterstained with Syto 82 nucleic acid stain (Invitrogen, Calif., USA) in a shaking heat block at 37° C. and 350 rpm for 20 minutes. They were co-incubated with the probe at required concentration in a sealed POC mini chamber, or 8 well confocal chamber. When required the glass coverslip for the POC chamber was coated in fibronectin (for neutrophil experiments) or poly-d-lysine (for bacteria and cell lines) and incubated with cells with one hour at 37° C. to allow adherence prior to bacterial innoculation. Analysis was with ImageJ. Briefly, the Syto channel was automatically thresholded (Huang) and an ROI generated from this. The mean fluorescence intensity on the probe channel within this ROI was quantified. Data presented represents the mean of three separate fields of view.

CC(C)C[C@@H]1NC(=O)[C@@H](Cc2ccccc2)NC(=O)[C@@H](CCN)NC(=O)C(NC(=O)[C@H](CCN)NC(=O)[C@@H](NC(=O)COCCOCCNc2ccc([N+](=O)[O-])c3nonc23)[C@@H](C)O)CCNC(=O)[C@@H]([C@H](C)O)NC(=O)[C@H](CCN)NC(=O)[C@H](CCN)NC1=O (some centres unmarked) [NBD-PMX] ({NBD-AEEA}-T[Dab][ξDab][dDab][dF]L[Dab][Dab][dT]; lactam 3-C)
detection of bacteria-coated agarose beads in situ ([1]; FCFM): when beads are coated with bacteria a signal is seen | in situ labelling of bacteria in segments instilled with bacteria ([1]; FCFM): demonstrated labelling | signal in segments with PBS or gram-positive bacteria ([1]; MSSA, MRSA, S. pneumoniae): no signal in segments with PBS or gram-positive bacteria | signal in segments instilled with gram-negative bacteria ([1]; P. aeruginosa (PA01, J3284), K. pneumoniae, E. coli): the same signal as in the ‘positive controls’ | red cell haemolysis [2]: no red cell haemolysis | detection of pre-labelled bacteria after instillation [3]: readily visualised | fluorescence in ovine lavage versus absence of lavage [4]: no significant reduction of fluorescence intensity | selectivity for bacterial labelling over lung surfactant constituents [5]: possess selectivity for bacterial labelling over lung surfactant constituents | bacterial:surfactant fluorescence intensity compared with linear NBD-UBINle ([5]; equimolar NBD concentrations): significantly higher bacterial: surfactant intensity than NBD-UBInle | Solubility [6]: Fully soluble in water | labelling of A549 cells [7]: retains selectivity of labeling over mammalian cells; also recorded: no labelling of human neutrophils or A549 cells
